Structures can show the parent of a compound that is named as a salt. Where two headings read alike, the source gives them in different places.
Key:
Assay in all cases: AK assay 384-well format, Prestwick library screening
E. faecium = type: cell-based, Enterococcus faecium; conditions: for fold induction at 50 µM: Enterococcus faecium, 3 h
[1] = system: S. aureus strain USA300-0114; type: cell-based, Staphylococcus aureus; conditions: for fold induction at 50 µM: Staphylococcus aureus, USA300, 3 h
K. pneumoniae = type: cell-based, Klebsiella pneumoniae; conditions: for fold induction at 50 µM: Klebsiella pneumoniae, 3 h
[2] = system: A. baumannii strain 98-37-09; type: cell-based, Acinetobacter baumannii; conditions: for fold induction at 50 µM: Acinetobacter baumannii, 983709, 3 h
P. aeruginosa = type: cell-based, Pseudomonas aeruginosa; conditions: for fold induction at 50 µM: Pseudomonas aeruginosa, 3 h
E. cloacae = type: cell-based, Enterobacter cloacae; conditions: for fold induction at 50 µM: Enterobacter cloacae, 3 h
E. coli = type: cell-based, Escherichia coli; conditions: for fold induction at 50 µM: Escherichia coli, 3 h
[3] = planktonic E. faecium, 50 μM final drug concentration, cutoff for positive-scoring molecules 3-fold increase, read-out: AK-based Prestwick Library Screening Results, E. faecium (increase in extracellular AK activity)
[4] = planktonic S. aureus, 50 μM final drug concentration, cutoff for positive-scoring molecules 3-fold increase, read-out: AK-based Prestwick Library Screening Results, S. aureus (increase in extracellular AK activity)
[5] = planktonic K. pneumoniae, 50 μM final drug concentration, cutoff for positive-scoring molecules 3-fold increase, read-out: AK-based Prestwick Library Screening Results, K. pneumoniae (increase in extracellular AK activity)
[6] = planktonic A. baumannii, 50 μM final drug concentration, cutoff for positive-scoring molecules 3-fold increase, read-out: AK-based Prestwick Library Screening Results, A. baumannii (increase in extracellular AK activity)
[7] = planktonic P. aeruginosa, 50 μM final drug concentration, cutoff for positive-scoring molecules 3-fold increase, read-out: AK-based Prestwick Library Screening Results, P. aeruginosa (increase in extracellular AK activity)
[8] = planktonic E. cloacae, 50 μM final drug concentration, cutoff for positive-scoring molecules 3-fold increase, read-out: AK-based Prestwick Library Screening Results, E. cloacae (increase in extracellular AK activity)
[9] = planktonic E. coli, 50 μM final drug concentration, cutoff for positive-scoring molecules 3-fold increase, read-out: AK-based Prestwick Library Screening Results, E. coli (increase in extracellular AK activity)
[10] = 50 μM final drug concentration, planktonic, cutoff for positive-scoring molecules 3-fold increase, read-out: AK-based Prestwick Library Screening Results, E. faecium (fold increase in extracellular AK activity)
[11] = 50 μM final drug concentration, planktonic, cutoff for positive-scoring molecules 3-fold increase, read-out: AK-based Prestwick Library Screening Results, S. aureus (fold increase in extracellular AK activity)
[12] = 50 μM final drug concentration, planktonic, cutoff for positive-scoring molecules 3-fold increase, read-out: AK-based Prestwick Library Screening Results, K. pneumoniae (fold increase in extracellular AK activity)
[13] = 50 μM final drug concentration, planktonic, cutoff for positive-scoring molecules 3-fold increase, read-out: AK-based Prestwick Library Screening Results, A. baumannii (fold increase in extracellular AK activity)
[14] = 50 μM final drug concentration, planktonic, cutoff for positive-scoring molecules 3-fold increase, read-out: AK-based Prestwick Library Screening Results, P. aeruginosa (fold increase in extracellular AK activity)
[15] = 50 μM final drug concentration, planktonic, cutoff for positive-scoring molecules 3-fold increase, read-out: AK-based Prestwick Library Screening Results, E. cloacae (fold increase in extracellular AK activity)
[16] = 50 μM final drug concentration, planktonic, cutoff for positive-scoring molecules 3-fold increase, read-out: AK-based Prestwick Library Screening Results, E. coli (fold increase in extracellular AK activity)
[17] = 50 μM final drug concentration, planktonic, […]
[18] = 50 μM final drug concentration, planktonic, cutoff for positive 3-fold increase, read-out: AK-based Prestwick Library Screening Results, E. faecium (fold increase in extracellular AK activity)
[19] = 50 μM final drug concentration, planktonic, cutoff for positive 3-fold increase, read-out: AK-based Prestwick Library Screening Results, S. aureus (fold increase in extracellular AK activity)
[20] = 50 μM final drug concentration, planktonic, cutoff for positive 3-fold increase, read-out: AK-based Prestwick Library Screening Results, K. pneumoniae (fold increase in extracellular AK activity)
[21] = 50 μM final drug concentration, planktonic, cutoff for positive 3-fold increase, read-out: AK-based Prestwick Library Screening Results, A. baumannii (fold increase in extracellular AK activity)
[22] = 50 μM final drug concentration, planktonic, cutoff for positive 3-fold increase, read-out: AK-based Prestwick Library Screening Results, P. aeruginosa (fold increase in extracellular AK activity)
[23] = 50 μM final drug concentration, planktonic, cutoff for positive 3-fold increase, read-out: AK-based Prestwick Library Screening Results, E. cloacae (fold increase in extracellular AK activity)
[24] = 50 μM final drug concentration, planktonic, cutoff for positive 3-fold increase, read-out: AK-based Prestwick Library Screening Results, E. coli (fold increase in extracellular AK activity)

CC(=O)[C@H]1CC[C@H]2[C@@H]3CC[C@H]4C[C@H](O)CC[C@]4(C)[C@H]3C(=O)C[C@]12C [Alfaxalone]
fold induction at 50 µM (E. faecium; read-out: AK-based Prestwick library screening result, E. faecium (fold increase in extracellular AK activity)): 1.1
fold induction at 50 µM ([1]; read-out: AK-based Prestwick library screening result, S. aureus (fold increase in extracellular AK activity)): 1.2
fold induction at 50 µM (K. pneumoniae; read-out: AK-based Prestwick library screening result, K. pneumoniae (fold increase in extracellular AK activity)): 1
fold induction at 50 µM ([2]; read-out: AK-based Prestwick library screening result, A. baumannii (fold increase in extracellular AK activity)): 1
fold induction at 50 µM (P. aeruginosa; read-out: AK-based Prestwick library screening result, P. aeruginosa (fold increase in extracellular AK activity)): 1.2
fold induction at 50 µM (E. cloacae; read-out: AK-based Prestwick library screening result, E. cloacae (fold increase in extracellular AK activity)): 1.7
fold induction at 50 µM (E. coli; read-out: AK-based Prestwick library screening result, E. coli (fold increase in extracellular AK activity)): 1.2

CC(C(=O)O)c1ccc(C(=O)c2ccccc2)s1 (centres unmarked) [Tiaprofenic acid]
fold induction at 50 µM (E. faecium; [3]): 0.8
fold induction at 50 µM [1, 4]: 0.5
fold induction at 50 µM (K. pneumoniae; [5]): 0.5
fold induction at 50 µM [2, 6]: 0.7
fold induction at 50 µM (P. aeruginosa; [7]): 0.6
fold induction at 50 µM (E. cloacae; [8]): 0.8
fold induction at 50 µM (E. coli; [9]): 0.6

CC(CN1c2ccccc2Sc2ccccc21)N(C)C (centres unmarked) [Promethazine hydrochloride]
fold induction at 50 µM (E. faecium; [10]): 0.8
fold induction at 50 µM [1, 11]: 0.5
fold induction at 50 µM (K. pneumoniae; [12]): 0.5
fold induction at 50 µM [2, 13]: 0.6
fold induction at 50 µM (P. aeruginosa; [14]): 0.6
fold induction at 50 µM (E. cloacae; [15]): 0.5
fold induction at 50 µM (E. coli; [16]): 0.6

Clc1ccc(COC(Cn2ccnc2)c2ccc(Cl)cc2Cl)cc1 (centres unmarked) [Econazole nitrate]
fold induction at 50 µM (E. faecium; planktonic E. faecium, 50 μM final drug concentration, 384-well, cutoff for positive-scoring molecules 3-fold increase, read-out: AK-based Prestwick Library Screening Results: E. faecium (increase in extracellular AK activity)): 1.5
fold induction at 50 µM ([1]; planktonic S. aureus, 50 μM final drug concentration, 384-well, cutoff for positive-scoring molecules 3-fold increase, read-out: AK-based Prestwick Library Screening Results: S. aureus (increase in extracellular AK activity)): 3.7
fold induction at 50 µM (K. pneumoniae; planktonic K. pneumoniae, 50 μM final drug concentration, 384-well, cutoff for positive-scoring molecules 3-fold increase, read-out: AK-based Prestwick Library Screening Results: K. pneumoniae (increase in extracellular AK activity)): 1.3
fold induction at 50 µM ([2]; planktonic A. baumannii, 50 μM final drug concentration, 384-well, cutoff for positive-scoring molecules 3-fold increase, read-out: AK-based Prestwick Library Screening Results: A. baumannii (increase in extracellular AK activity)): 6.7
fold induction at 50 µM (P. aeruginosa; planktonic P. aeruginosa, 50 μM final drug concentration, 384-well, cutoff for positive-scoring molecules 3-fold increase, read-out: AK-based Prestwick Library Screening Results: P. aeruginosa (increase in extracellular AK activity)): 1.3
fold induction at 50 µM (E. cloacae; planktonic E. cloacae, 50 μM final drug concentration, 384-well, cutoff for positive-scoring molecules 3-fold increase, read-out: AK-based Prestwick Library Screening Results: E. cloacae (increase in extracellular AK activity)): 1.3
fold induction at 50 µM (E. coli; planktonic E. coli, 50 μM final drug concentration, 384-well, cutoff for positive-scoring molecules 3-fold increase, read-out: AK-based Prestwick Library Screening Results: E. coli (increase in extracellular AK activity)): 1.3

COc1ccc(C(=O)c2ccccc2O)c(O)c1 [Dioxybenzone]
fold induction at 50 µM (E. faecium; [10]): 0.8
fold induction at 50 µM [1, 11]: 0.5
fold induction at 50 µM (K. pneumoniae; [12]): 0.7
fold induction at 50 µM [2, 13]: 0.6
fold induction at 50 µM (P. aeruginosa; [14]): 0.7
fold induction at 50 µM (E. cloacae; [15]): 1
fold induction at 50 µM (E. coli; [16]): 0.8

CC(C)C[C@H]1C(=O)N2CCC[C@H]2[C@]2(O)O[C@](NC(=O)[C@@H]3C=C4c5cccc6[nH]cc(c56)C[C@H]4N(C)C3)(C(C)C)C(=O)N12 [Ergocryptine-alpha]
AK-based Prestwick Library Screening Results, E. faecium (fold increase in extracellular AK activity) (E. faecium; [17]): 0.7
AK-based Prestwick Library Screening Results, S. aureus (fold increase in extracellular AK activity) [1, 17]: 0.2
AK-based Prestwick Library Screening Results, K. pneumoniae (fold increase in extracellular AK activity) (K. pneumoniae; [17]): 0.5
AK-based Prestwick Library Screening Results, A. baumannii (fold increase in extracellular AK activity) [2, 17]: 0.5
AK-based Prestwick Library Screening Results, P. aeruginosa (fold increase in extracellular AK activity) (P. aeruginosa; [17]): 0.4
AK-based Prestwick Library Screening Results, E. cloacae (fold increase in extracellular AK activity) (E. cloacae; [17]): 0.4
AK-based Prestwick Library Screening Results, E. coli (fold increase in extracellular AK activity) (E. coli; [17]): 0.4

O=C(CCCN1CCC(n2c(O)nc3ccccc32)CC1)c1ccc(F)cc1 [Benperidol]
fold induction at 50 µM (E. faecium; [3]): 1
fold induction at 50 µM [1, 4]: 0.5
fold induction at 50 µM (K. pneumoniae; [5]): 0.5
fold induction at 50 µM [2, 6]: 0.5
fold induction at 50 µM (P. aeruginosa; [7]): 0.6
fold induction at 50 µM (E. cloacae; [8]): 0.6
fold induction at 50 µM (E. coli; [9]): 0.6

C=CCSCC1Nc2cc(Cl)c(S(N)(=O)=O)cc2S(=O)(=O)N1 (centres unmarked) [Althiazide]
fold induction at 50 µM (E. faecium; [18]): 1
fold induction at 50 µM [1, 19]: 0.4
fold induction at 50 µM (K. pneumoniae; [20]): 0.4
fold induction at 50 µM [2, 21]: 0.4
fold induction at 50 µM (P. aeruginosa; [22]): 0.4
fold induction at 50 µM (E. cloacae; [23]): 0.3
fold induction at 50 µM (E. coli; [24]): 0.4

Cc1cc(/C=C/c2ccc3cc(N(C)C)ccc3[n+]2C)c(C)n1-c1ccccc1 [Pyrvinium pamoate]
fold induction at 50 µM (E. faecium; planktonic E. faecium, 50 μM final drug concentration, positive cutoff 3-fold increase, read-out: AK-based Prestwick library screening result, E. faecium (fold increase in extracellular AK activity)): 1.5
fold induction at 50 µM ([1]; planktonic S. aureus, 50 μM final drug concentration, positive cutoff 3-fold increase, read-out: AK-based Prestwick library screening result, S. aureus (fold increase in extracellular AK activity)): 1.4
fold induction at 50 µM (K. pneumoniae; planktonic K. pneumoniae, 50 μM final drug concentration, positive cutoff 3-fold increase, read-out: AK-based Prestwick library screening result, K. pneumoniae (fold increase in extracellular AK activity)): 0.8
fold induction at 50 µM ([2]; planktonic A. baumannii, 50 μM final drug concentration, positive cutoff 3-fold increase, read-out: AK-based Prestwick library screening result, A. baumannii (fold increase in extracellular AK activity)): 0.9
fold induction at 50 µM (P. aeruginosa; planktonic P. aeruginosa, 50 μM final drug concentration, positive cutoff 3-fold increase, read-out: AK-based Prestwick library screening result, P. aeruginosa (fold increase in extracellular AK activity)): 0.7
fold induction at 50 µM (E. cloacae; planktonic E. cloacae, 50 μM final drug concentration, positive cutoff 3-fold increase, read-out: AK-based Prestwick library screening result, E. cloacae (fold increase in extracellular AK activity)): 13.2
fold induction at 50 µM (E. coli; planktonic E. coli, 50 μM final drug concentration, positive cutoff 3-fold increase, read-out: AK-based Prestwick library screening result, E. coli (fold increase in extracellular AK activity)): 0.8

C[N+]1(C)CCC(OC(=O)C(O)(c2ccccc2)C2CCCC2)C1 (centres unmarked) [Glycopyrrolate]
fold induction at 50 µM (E. faecium; [10]): 0.9
fold induction at 50 µM [1, 11]: 0.7
fold induction at 50 µM (K. pneumoniae; [12]): 0.8
fold induction at 50 µM [2, 13]: 0.8
fold induction at 50 µM (P. aeruginosa; [14]): 0.9
fold induction at 50 µM (E. cloacae; [15]): 1.1
fold induction at 50 µM (E. coli; [16]): 0.9

NCc1ccccc1CC(=O)N[C@@H]1C(=O)N2C(C(=O)O)=C(CSc3nnnn3CC(=O)O)CS[C@H]12 [Ceforanide]
fold induction at 50 µM (E. faecium; [18]): 1
fold induction at 50 µM [1, 19]: 1.8
fold induction at 50 µM (K. pneumoniae; [20]): 3.1
fold induction at 50 µM [2, 21]: 1.8
fold induction at 50 µM (P. aeruginosa; [22]): 1.2
fold induction at 50 µM (E. cloacae; [23]): 1.9
fold induction at 50 µM (E. coli; [24]): 12.2
